Reference: ChEMBL document CHEMBL4052645, “Discovery of potent and efficacious pyrrolopyridazines as dual JAK1/3 inhibitors” (Bioorg Med Chem Lett, 2017)
Values after ≈ are worked out from the molar mass of the structure shown.

Columns and labels:
[1] = biological target: Proto-oncogene tyrosine-protein kinase Src (Homo sapiens) (UniProt P12931); test: Inhibition of wild-type human partial length SRC (L240 to L536 residues) expressed in bacterial expression system assessed as residual activity at 50 nM by Kinomescan method relative to control
[2] = Clearance of compound in mouse; type: ADME, organism-based; details: in vivo
[3] = biological target: Maternal embryonic leucine zipper kinase (Homo sapiens) (UniProt Q14680); test: Inhibition of wild-type human full length MELK (M1 to V651 residues) expressed in bacterial expression system assessed as residual activity at 50 nM by Kinomescan method relative to control
[4] = system: Mus musculus; test: Toxicity in collagen-induced arthritis mouse model at 50 mg/kg, po qd; type: organism-based; details: in vivo
[5] = biological target: STE20/SPS1-related proline-alanine-rich protein kinase (Homo sapiens) (UniProt Q9UEW8); test: Inhibition of wild-type human partial length STLK3 (P43 to I357 residues) expressed in mammalian expression system assessed as residual activity at 50 nM by Kinomescan method relative to control
[6] = biological target: Mitogen-activated protein kinase 14 (Homo sapiens) (UniProt Q16539); test: Inhibition of wild-type human full length p38-alpha (M1 to S360 residues) expressed in bacterial expression system assessed as residual activity at 50 nM by Kinomescan method relative to control
[7] = biological target: Mitogen-activated protein kinase kinase kinase kinase 5 (Homo sapiens) (UniProt Q9Y4K4); test: Inhibition of recombinant human KHS1 (M1 to P297 residues) expressed in bacterial expression system assessed as residual activity at 50 nM by Kinomescan method relative to control
[8] = biological target: Tyrosine-protein kinase ABL1 (Homo sapiens) (UniProt P00519); test: Inhibition of wild-type human non-phosphorylated ABL1 (S229 to K512 residues) expressed in mammalian expression system assessed as residual activity at 50 nM by Kinomescan method relative to control
[9] = biological target: Calcium/calmodulin-dependent protein kinase type 1G (Homo sapiens) (UniProt Q96NX5); test: Inhibition of wild-type human partial length CAMK1G (M1 to A342 residues) expressed in bacterial expression system assessed as residual activity at 50 nM by Kinomescan method relative to control
[10] = Drug concentration in mouse after 24 hrs; type: ADME; details: in vivo, read-out: Drug uptake
[11] = system: Phosphatidylinositol 4,5-bisphosphate 3-kinase catalytic subunit alpha isoform (Homo sapiens), P42336 [H1047L]; test: Inhibition of human partial length PIK3CA H1047L mutant (R108 to N1068 residues) expressed in mammalian expression system assessed as residual activity at 50 nM by Kinomescan method relative to control
[12] = species: Mus musculus; test: animal or person; details: Balb/c, 24 h
[13] = biological target: Mitogen-activated protein kinase kinase kinase 1 (Homo sapiens) (UniProt Q13233); test: Inhibition of wild-type human partial length MAP3K1 (L1202 to W1512 residues) expressed in mammalian expression system assessed as residual activity at 50 nM by Kinomescan method relative to control
[14] = Half life in Sprague-Dawley rat at 2 mg/kg, iv; type: ADME, organism-based; details: in vivo
[15] = Tmax in Sprague-Dawley rat at 10 mg/kg, po; type: ADME, organism-based; details: in vivo
[16] = biological target: Cytochrome P450 3A4 (Homo sapiens, UniProt P08684); test: Inhibition of CYP3A4 (unknown origin); type: ADME
[17] = Volume of distribution at steady state in Sprague-Dawley rat at 2 mg/kg, iv; type: ADME, organism-based; details: in vivo, read-out: Vdss
[18] = biological target: Serine/threonine-protein kinase STK11 (Homo sapiens) (UniProt Q15831); test: Inhibition of wild-type human full length LKB1 (M1 to Q433 residues) expressed in bacterial expression system assessed as residual activity at 50 nM by Kinomescan method relative to control
[19] = biological target: Tyrosine-protein kinase Fgr (Homo sapiens) (UniProt P09769); test: Inhibition of wild-type human partial length FGR (L233 to T529 residues) expressed in bacterial expression system assessed as residual activity at 50 nM by Kinomescan method relative to control
[20] = Half life in human liver microsomes; type: ADME, microsome
[21] = biological target: Myosin light chain kinase family member 4 (Homo sapiens) (UniProt Q86YV6); test: Inhibition of wild-type human partial length SGK085 (V79 to S380 residues) expressed in bacterial expression system assessed as residual activity at 50 nM by Kinomescan method relative to control
[22] = Clearance in BALB/c mouse at 2 mg/kg, iv; type: ADME, organism-based; details: in vivo
[23] = biological target: Serine/threonine-protein kinase PLK4 (Homo sapiens) (UniProt O00444); test: Inhibition of wild-type human partial length PLK4 (M1 to S273 residues) expressed in mammalian expression system assessed as residual activity at 50 nM by Kinomescan method relative to control
[24] = Cmin in mouse at 10 mg/kg, po after 24 hrs; type: ADME, organism-based; details: in vivo, read-out: Cmin
[25] = Cmax in BALB/c mouse at 10 mg/kg, po; type: ADME, organism-based; set-up: dose 10 mg/kg, route oral; details: in vivo
[26] = Oral bioavailability in BALB/c mouse at 10 mg/kg; type: ADME, organism-based; details: in vivo
[27] = Cmax in mouse at 10 mg/kg, po after 24 hrs; type: ADME, organism-based; set-up: dose 10 mg/kg, route oral; details: in vivo
[28] = Aqueous solubility of compound at pH 6.5; type: physicochemical
[29] = Metabolic stability in mouse liver microsomes assessed as compound remaining after 10 mins; type: ADME, microsome; details: read-out: Stability
[30] = biological target: T1, Voltage-gated inwardly rectifying potassium channel KCNH2 (Homo sapiens, UniProt Q12809); test: Inhibition of human ERG by flux-based assay
[31] = species: Homo sapiens; test: Inhibition of calcium channel (unknown origin) at 10 uM by patch clamp assay
[32] = system: Rattus norvegicus; test: Cardiotoxicity in rat assessed as decrease in mean arterial blood pressure at 200 mg/kg; type: toxicity, organism-based; details: in vivo
[33] = biological target: Mitogen-activated protein kinase 9 (Homo sapiens) (UniProt P45984); test: Inhibition of wild-type human full length JNK2 (M1 to Q382 residues) expressed in mammalian expression system assessed as residual activity at 50 nM by Kinomescan method relative to control
[34] = AUC in BALB/c mouse at 2 mg/kg, iv; type: ADME, organism-based; details: in vivo
[35] = biological target: T1, Voltage-gated inwardly rectifying potassium channel KCNH2; test: Inhibition of human ERG by patch clamp method
[36] = system: Ribosomal protein S6 kinase alpha-2; test: Inhibition of wild-type human partial length N-terminal RSK3 kinase domain 1 (M1 to Q385 residues) expressed in bacterial expression system assessed as residual activity at 50 nM by Kinomescan method relative to control
[37] = biological target: Tyrosine-protein kinase Lyn (Homo sapiens) (UniProt P07948); test: Inhibition of wild-type human partial length LYN (C219 to Q511 residues) expressed in bacterial expression system assessed as residual activity at 50 nM by Kinomescan method relative to control
[38] = system: Mitogen-activated protein kinase kinase kinase 12; test: Inhibition of wild-type human full length DLK (M1 to P859 residues) expressed in mammalian expression system assessed as residual activity at 50 nM by Kinomescan method relative to control

T1 sequence (Q12809 whole entry): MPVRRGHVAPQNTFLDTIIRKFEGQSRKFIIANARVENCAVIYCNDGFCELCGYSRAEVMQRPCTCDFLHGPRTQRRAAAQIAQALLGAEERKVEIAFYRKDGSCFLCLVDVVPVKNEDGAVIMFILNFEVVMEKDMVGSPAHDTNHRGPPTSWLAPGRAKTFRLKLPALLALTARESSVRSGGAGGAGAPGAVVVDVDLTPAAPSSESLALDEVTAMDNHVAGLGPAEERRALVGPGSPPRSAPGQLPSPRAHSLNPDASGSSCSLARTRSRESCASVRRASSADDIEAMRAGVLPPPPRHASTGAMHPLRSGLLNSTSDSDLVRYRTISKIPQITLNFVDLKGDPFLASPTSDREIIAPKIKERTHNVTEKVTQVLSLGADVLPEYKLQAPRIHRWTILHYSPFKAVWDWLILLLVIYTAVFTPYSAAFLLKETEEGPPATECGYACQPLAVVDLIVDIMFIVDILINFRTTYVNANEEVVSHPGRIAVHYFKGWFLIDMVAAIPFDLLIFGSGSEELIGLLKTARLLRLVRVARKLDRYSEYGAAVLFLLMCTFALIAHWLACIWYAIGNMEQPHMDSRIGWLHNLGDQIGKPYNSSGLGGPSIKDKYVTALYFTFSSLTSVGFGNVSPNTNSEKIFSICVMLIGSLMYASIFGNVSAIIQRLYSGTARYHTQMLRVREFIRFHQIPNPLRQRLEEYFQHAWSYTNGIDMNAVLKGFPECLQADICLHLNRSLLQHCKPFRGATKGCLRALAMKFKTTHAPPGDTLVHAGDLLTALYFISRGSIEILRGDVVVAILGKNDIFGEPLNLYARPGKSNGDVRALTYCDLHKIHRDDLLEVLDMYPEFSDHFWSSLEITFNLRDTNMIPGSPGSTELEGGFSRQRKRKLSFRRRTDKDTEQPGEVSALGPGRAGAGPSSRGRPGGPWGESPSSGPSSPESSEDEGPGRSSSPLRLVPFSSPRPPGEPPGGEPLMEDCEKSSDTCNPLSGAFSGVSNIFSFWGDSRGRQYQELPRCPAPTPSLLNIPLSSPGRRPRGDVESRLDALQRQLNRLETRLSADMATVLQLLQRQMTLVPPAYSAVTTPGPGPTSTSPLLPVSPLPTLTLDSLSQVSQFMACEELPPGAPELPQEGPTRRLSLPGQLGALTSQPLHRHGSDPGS
Chain of Maternal embryonic leucine zipper kinase (Homo sapiens) (Q14680 whole entry, looked up, the tested form may be a part): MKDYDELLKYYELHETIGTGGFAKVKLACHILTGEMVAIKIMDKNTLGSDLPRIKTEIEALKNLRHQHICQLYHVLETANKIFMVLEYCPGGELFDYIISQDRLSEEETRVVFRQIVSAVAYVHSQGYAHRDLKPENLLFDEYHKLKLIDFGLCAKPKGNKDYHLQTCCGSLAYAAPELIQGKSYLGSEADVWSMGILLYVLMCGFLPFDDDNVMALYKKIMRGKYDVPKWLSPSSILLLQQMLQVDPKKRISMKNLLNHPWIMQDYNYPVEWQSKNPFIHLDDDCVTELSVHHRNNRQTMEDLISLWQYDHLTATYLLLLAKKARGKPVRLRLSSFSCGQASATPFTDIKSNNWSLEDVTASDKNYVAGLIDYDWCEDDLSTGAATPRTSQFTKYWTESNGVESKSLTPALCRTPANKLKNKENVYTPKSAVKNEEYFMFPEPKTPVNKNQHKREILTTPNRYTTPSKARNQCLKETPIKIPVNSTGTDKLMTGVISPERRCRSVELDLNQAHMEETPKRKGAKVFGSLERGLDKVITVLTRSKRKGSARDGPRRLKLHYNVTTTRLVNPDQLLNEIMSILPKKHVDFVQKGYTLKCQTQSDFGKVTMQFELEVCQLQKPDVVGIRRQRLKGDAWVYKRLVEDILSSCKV
Chain of Mitogen-activated protein kinase kinase kinase kinase 5 (Homo sapiens) (Q9Y4K4 whole entry, looked up, the tested form may be a part): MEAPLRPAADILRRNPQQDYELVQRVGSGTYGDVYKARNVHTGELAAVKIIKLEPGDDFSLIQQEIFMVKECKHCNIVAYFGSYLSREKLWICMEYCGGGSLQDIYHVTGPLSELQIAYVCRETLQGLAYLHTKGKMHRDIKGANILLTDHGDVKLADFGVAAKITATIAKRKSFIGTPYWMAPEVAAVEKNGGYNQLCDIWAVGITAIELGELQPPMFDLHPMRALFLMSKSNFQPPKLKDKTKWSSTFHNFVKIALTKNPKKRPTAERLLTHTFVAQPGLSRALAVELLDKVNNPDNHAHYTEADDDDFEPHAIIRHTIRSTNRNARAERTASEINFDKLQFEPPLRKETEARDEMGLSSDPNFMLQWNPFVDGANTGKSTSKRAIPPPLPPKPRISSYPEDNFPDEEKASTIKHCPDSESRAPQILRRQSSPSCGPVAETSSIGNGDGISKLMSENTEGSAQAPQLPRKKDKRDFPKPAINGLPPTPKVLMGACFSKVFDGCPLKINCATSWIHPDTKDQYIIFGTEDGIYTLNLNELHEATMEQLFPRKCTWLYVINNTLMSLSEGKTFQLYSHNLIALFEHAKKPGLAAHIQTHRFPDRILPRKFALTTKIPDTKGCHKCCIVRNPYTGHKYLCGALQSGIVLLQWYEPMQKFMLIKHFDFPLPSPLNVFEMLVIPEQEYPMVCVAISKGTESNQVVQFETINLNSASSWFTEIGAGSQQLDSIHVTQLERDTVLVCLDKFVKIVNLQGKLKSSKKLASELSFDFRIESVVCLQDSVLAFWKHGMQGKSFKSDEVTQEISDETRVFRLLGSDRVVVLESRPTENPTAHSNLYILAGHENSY
Chain of Mitogen-activated protein kinase 14 (Homo sapiens) (Q16539 whole entry, the tested form may be a part): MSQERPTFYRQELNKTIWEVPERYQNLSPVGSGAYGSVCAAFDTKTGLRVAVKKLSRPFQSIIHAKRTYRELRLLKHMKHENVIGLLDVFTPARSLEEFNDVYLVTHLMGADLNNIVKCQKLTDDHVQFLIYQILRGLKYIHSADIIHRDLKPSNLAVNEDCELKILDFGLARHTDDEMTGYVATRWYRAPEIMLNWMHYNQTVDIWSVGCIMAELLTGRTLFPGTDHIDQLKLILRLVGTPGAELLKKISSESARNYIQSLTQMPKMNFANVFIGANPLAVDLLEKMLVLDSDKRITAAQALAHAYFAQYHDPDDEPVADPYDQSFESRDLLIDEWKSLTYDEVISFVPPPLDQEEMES
Chain of Proto-oncogene tyrosine-protein kinase Src (Homo sapiens) (P12931 2-536 limits assumed): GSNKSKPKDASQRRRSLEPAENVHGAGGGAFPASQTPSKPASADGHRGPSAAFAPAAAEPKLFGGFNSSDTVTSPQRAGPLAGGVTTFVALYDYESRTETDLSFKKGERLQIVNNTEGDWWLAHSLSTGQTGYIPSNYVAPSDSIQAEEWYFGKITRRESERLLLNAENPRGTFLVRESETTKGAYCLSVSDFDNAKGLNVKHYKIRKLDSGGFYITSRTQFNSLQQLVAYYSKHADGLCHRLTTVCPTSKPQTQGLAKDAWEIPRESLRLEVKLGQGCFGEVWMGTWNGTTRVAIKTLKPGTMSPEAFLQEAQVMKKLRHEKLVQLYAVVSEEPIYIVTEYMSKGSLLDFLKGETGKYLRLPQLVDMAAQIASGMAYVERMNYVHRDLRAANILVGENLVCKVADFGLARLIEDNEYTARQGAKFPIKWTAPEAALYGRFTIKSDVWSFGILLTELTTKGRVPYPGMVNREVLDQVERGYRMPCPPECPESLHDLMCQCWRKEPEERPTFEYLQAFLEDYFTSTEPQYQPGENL
Chain of Tyrosine-protein kinase ABL1 (Homo sapiens) (P00519 whole entry, the tested form may be a part): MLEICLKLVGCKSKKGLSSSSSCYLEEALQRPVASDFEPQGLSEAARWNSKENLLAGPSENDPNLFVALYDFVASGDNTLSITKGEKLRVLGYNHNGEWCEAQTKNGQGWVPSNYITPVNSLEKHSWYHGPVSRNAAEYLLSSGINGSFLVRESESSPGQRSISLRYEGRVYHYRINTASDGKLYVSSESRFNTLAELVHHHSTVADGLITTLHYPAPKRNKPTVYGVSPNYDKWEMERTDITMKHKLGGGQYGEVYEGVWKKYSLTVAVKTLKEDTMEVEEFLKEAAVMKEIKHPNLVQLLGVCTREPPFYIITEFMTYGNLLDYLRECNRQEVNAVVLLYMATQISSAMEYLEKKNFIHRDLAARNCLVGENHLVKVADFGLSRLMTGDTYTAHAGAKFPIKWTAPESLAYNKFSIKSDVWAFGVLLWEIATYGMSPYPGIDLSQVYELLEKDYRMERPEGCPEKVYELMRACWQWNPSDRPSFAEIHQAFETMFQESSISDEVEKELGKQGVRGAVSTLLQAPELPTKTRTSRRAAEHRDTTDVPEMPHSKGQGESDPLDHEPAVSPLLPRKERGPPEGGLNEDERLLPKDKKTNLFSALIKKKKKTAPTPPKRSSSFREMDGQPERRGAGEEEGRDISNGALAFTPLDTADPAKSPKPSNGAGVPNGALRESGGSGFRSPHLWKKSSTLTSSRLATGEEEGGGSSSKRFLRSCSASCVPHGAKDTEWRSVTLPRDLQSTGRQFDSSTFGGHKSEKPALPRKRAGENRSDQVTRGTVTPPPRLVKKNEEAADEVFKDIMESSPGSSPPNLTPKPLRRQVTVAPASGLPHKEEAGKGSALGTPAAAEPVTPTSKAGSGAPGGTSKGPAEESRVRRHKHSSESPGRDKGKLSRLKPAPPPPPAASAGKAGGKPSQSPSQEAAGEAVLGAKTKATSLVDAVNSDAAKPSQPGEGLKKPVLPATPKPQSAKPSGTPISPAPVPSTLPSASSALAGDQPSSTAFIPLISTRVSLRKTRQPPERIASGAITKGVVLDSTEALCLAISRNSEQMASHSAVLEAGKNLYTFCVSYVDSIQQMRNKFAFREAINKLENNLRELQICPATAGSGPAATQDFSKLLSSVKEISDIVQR
Chain of Myosin light chain kinase family member 4 (Homo sapiens) (Q86YV6 whole entry, the tested form may be a part): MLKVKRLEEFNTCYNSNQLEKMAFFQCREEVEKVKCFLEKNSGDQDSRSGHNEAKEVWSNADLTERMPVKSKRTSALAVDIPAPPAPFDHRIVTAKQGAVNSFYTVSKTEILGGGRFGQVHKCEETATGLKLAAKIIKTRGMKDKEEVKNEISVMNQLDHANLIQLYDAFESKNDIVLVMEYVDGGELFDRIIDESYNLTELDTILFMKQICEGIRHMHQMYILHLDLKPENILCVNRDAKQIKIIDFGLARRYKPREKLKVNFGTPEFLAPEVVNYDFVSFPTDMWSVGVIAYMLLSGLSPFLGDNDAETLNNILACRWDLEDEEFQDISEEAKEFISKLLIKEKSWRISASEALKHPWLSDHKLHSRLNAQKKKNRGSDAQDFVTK

CC1(C)[C@H](Nc2c(C(N)=O)cnn3cc(-c4ccccc4)cc23)CC[C@]1(C)N
Activity [1]: 75% | clearance [2]: 1.74 L/h/kg | Activity [3]: 79% | Activity [4]: Toxic | Activity [5]: 100% | Activity [6]: 94% | Activity [7]: 80% | Activity [8]: 100% | Activity [9]: 100% | concentration at 24 h [10]: 0.23 µM | Activity [11]: 95% | IC50 [12]: 0.27 µM

COc1ccc(-c2cc3c(N[C@@H]4CC[C@](C)(N)C4(C)C)c(C(N)=O)cnn3c2)cn1
Activity [13]: 98% | half-life [14]: 9.8 h | Tmax [15]: 7.3 h | IC50 [16]: 11 µM | Activity [1]: 97% | Vd [17]: 11.5 L/kg | Activity [3]: 79% | Activity [18]: 100% | Activity [19]: 99% | half-life [20]: > 1.5 h | Activity [21]: 94% | Activity [5]: 84% | Activity [6]: 100% | clearance [22]: 1 L/h/kg | Activity [23]: 100% | Activity [7]: 100% | Activity [8]: 90% | concentration at 24 h [24]: 0.3 µM | Cmax [25]: 1.1 µM | bioavailability [26]: 73% | Cmax [27]: 1.1 µM | solubility [28]: 0.079 mg/mL (≈ 193 µM) | remaining at 10 min [29]: 95% | IC50 [30]: > 80 µM | Activity [9]: 82% | inhibition [31]: 16% | Activity [32]: Toxic | Activity [33]: 88% | AUC [34]: 4.9 µM·h | IC50 [35]: 3 µM | Activity [36]: 87% | Activity [37]: 100% | Activity [38]: 81%
